This assay concerns Gaeumannomyces graminis var. tritici (Ggt). In words: In vitro Assay: mycelial growth of Ggt on minimal media agar plates containing test compound. The format is cell-based. Conditions: dark, 19-20° C., 4 to 5 days, diameter of mycelial growth; for inhibition at 0.1 ppm / inhibition at 1 ppm / inhibition at 10 ppm: Gaeumannomyces graminis; for inhibition at 0.1 ppm / In vitro (ppm) 0.1, Percent Inhibition: 0.1 ppm in minimal media agar; for inhibition at 0.1 ppm: read-out: In vitro (ppm) 0.1, Percent Inhibition; for inhibition at 1 ppm / In vitro (ppm) 1, Percent Inhibition: 1 ppm in minimal media agar; for inhibition at 1 ppm: read-out: In vitro (ppm) 1, Percent Inhibition; for inhibition at 10 ppm / In vitro (ppm) 10, Percent Inhibition: 10 ppm in minimal media agar; for inhibition at 10 ppm: read-out: In vitro (ppm) 10, Percent Inhibition. The method in brief:
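Ggt mycelial diameter read after 4 to 5 days in darkness at 19-20° C, from three 4-mm plugs placed on Czapek Dox minimal agar containing test compound delivered in acetone. Inhibition expressed as percent versus untreated plates, plug size (4 mm) subtracted from both.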

The inhibition is the share of the control response that was lost under treatment. Regarding `C#CC(C)(C)NC(=O)c1c(Cl)cccc1[Si](C)(C)C` [Example 107, 2-Chloro-N-(1,1-dimethyl-2-propynyl)-6-(trimethylsilyl)benzamide], the inhibition at 0.1 ppm is < 0%, the inhibition at 1 ppm is < 0% and the inhibition at 10 ppm came to 24%.

`CCNC(=O)c1c(Cl)cccc1[Si](C)(C)c1ccccc1` [Example 184, 2-Chloro-6-(dimethylphenylsilyl)-N-ethylbenzamide]: the inhibition at 0.1 ppm is < 0%, the inhibition at 1 ppm was 11% and the inhibition at 10 ppm stood at 83%.

Take `CCNC(=O)c1c(F)cccc1SC(C)(C)C` [Example 90]: the “In vitro (ppm) 0.1, Percent Inhibition” value came out at 6%; the “In vitro (ppm) 1, Percent Inhibition” value came to 34%; the “In vitro (ppm) 10, Percent Inhibition” value is 89%.

Consider `CCNC(=O)c1sc(C=O)cc1[Si](C)(C)C` [Example 258, N-Ethyl-5-formyl-3-(trimethylsilyl)-2-thiophenecarboxamide], for which the inhibition at 0.1 ppm worked out at 19%, the inhibition at 1 ppm turned out to be 19% and the inhibition at 10 ppm was determined as 42%.

`CCN(COC)C(=O)c1ccccc1[Si](C)(C)C` [Example 50, N-Ethyl-N-(methoxymethyl)-2-(trimethylsilyl)benzamide]: the inhibition at 0.1 ppm came to 3%, the inhibition at 1 ppm was 10% and the inhibition at 10 ppm is 20%.

On to `CCNC(=O)c1c(Cl)cccc1[Si](C)(C)C1CCCCC1` [Example 181, 2-Chloro-6-(cyclohexyldimethylsilyl)-N-ethylbenzamide], for which the inhibition at 0.1 ppm worked out at 12%, the inhibition at 1 ppm turned out to be 33% and the inhibition at 10 ppm amounted to 58%.

With `CCNC(=O)c1c(Cl)ccc[c]1[Sn]([CH3])([CH3])[CH3]` [Example 115, 2-Chloro-N-ethyl-6-(trimethylstannyl)benzamide], the “In vitro (ppm) 0.1, Percent Inhibition” value is 97%; the “In vitro (ppm) 1, Percent Inhibition” value is recorded as 97%; the “In vitro (ppm) 10, Percent Inhibition” value is 97%.

Turning to `CCNC(=O)c1sc(C)cc1[Si](C)(C)C` [Example 256, N-Ethyl-5-methyl-3-(trimethylsilyl)-2-thiophenecarboxamide], the inhibition at 0.1 ppm is < 0%, the inhibition at 1 ppm was < 0% and the inhibition at 10 ppm is 100%.

On to `CCNC(=O)c1ccncc1[Si](C)(C)C` [Example 124, N-Ethyl-3-(trimethylsilyl)-4-pyridinecarboxamide], for which the inhibition at 0.1 ppm is < 0%, the inhibition at 1 ppm was < 0% and the inhibition at 10 ppm was found to be 62%.

Regarding `CCN(C(=O)c1ccccc1C(C)(C)C)C(OC)C(C)(C)C` (stereo not drawn) [Example 186, 2-(1,1-Dimethylethyl)-N-ethyl-N-(1-methoxy-2,2-dimethylpropyl)benzamide], the inhibition at 0.1 ppm is < 0%, the inhibition at 1 ppm is < 0% and the inhibition at 10 ppm is 67%.

With `CC1C=CC(C)N1C(=O)c1c(Cl)cccc1[Si](C)(C)C` (stereo not drawn) [Example 149, 1-[2-Chloro-6-(trimethylsilyl)benzoyl)-2,5-dihydro-2,5-dimethyl-1H-pyrrole], the inhibition at 0.1 ppm was < 0%, the inhibition at 1 ppm was < 0% and the inhibition at 10 ppm was 80%.

Regarding `CC(C)NC(=O)NC(=O)c1c(Cl)cccc1[Si](C)(C)C` [Example 173, 2-Chloro-N-(isopropylaminocarbonyl)-6-(trimethylsilyl)benzamide], the inhibition at 0.1 ppm came out at 4%, the inhibition at 1 ppm was determined as 12% and the inhibition at 10 ppm came to 92%.

On to `CCNC(=O)n1nccc1[Si](C)(C)C` [Example 284, N-Ethyl-5-(trimethylsilyl)-1H-pyrazole-1-carboxamide], for which the inhibition at 0.1 ppm was 23%, the inhibition at 1 ppm was found to be 35% and the inhibition at 10 ppm stood at 91%.

In the case of `CCN(COC)C(=O)c1c(Cl)cccc1[Si](C)(C)C` [Example 46, 2-Chloro-N-ethyl-N-(methoxymethyl)-6-(trimethylsilyl)benzamide], the inhibition at 0.1 ppm was 15%, the inhibition at 1 ppm was found to be 11% and the inhibition at 10 ppm turned out to be 44%.

Take `C[Si](C)(C)c1cccc(Cl)c1C(=O)NCC#N` [Example 142, 2-Chloro-N-(cyanomethyl)-6-(trimethylsilyl)benzamide]: the inhibition at 0.1 ppm is < 0%, the inhibition at 1 ppm was < 0% and the inhibition at 10 ppm was determined as 59%.

For `CCN(CC)C(=O)c1sccc1[Si](C)(C)C` [Example 255, N,N-Diethyl-3-(trimethylsilyl)-2-thiophenecarboxamide], the inhibition at 0.1 ppm is < 0%, the inhibition at 1 ppm was < 0% and the inhibition at 10 ppm worked out at 73%.

On to `CCNC(=O)c1c(F)cccc1CC(C)(C)C` [Example 93, 2-(2,2-Dimethylpropyl)-N-ethyl-6-fluorobenzamide], for which the inhibition at 0.1 ppm was < 0%, the inhibition at 1 ppm was < 0% and the inhibition at 10 ppm came out at 26%.

In the case of `C[Si](C)(C)c1cccc(Cl)c1C(=O)NCc1ccccc1` [Example 31, 2-Chloro-N-(phenylmethyl)-6-(trimethylsilyl)benzamide], the inhibition at 0.1 ppm was < 0%, the inhibition at 1 ppm came out at 4% and the inhibition at 10 ppm worked out at 96%.

For `CCNC(=O)c1sc([S+](C)[O-])cc1[Si](C)(C)C` (stereo not drawn) [Example 260, N-Ethyl-5-(methylsulfinyl)-3-(trimethylsilyl)-2-thiophenecarboxamide], the inhibition at 0.1 ppm is < 0%, the inhibition at 1 ppm is < 0% and the inhibition at 10 ppm amounted to 77%.

For the compound `CCNC(=O)c1c(F)cccc1[S+]([O-])C(C)(C)C` (stereo not drawn) [Example 194, 2-[(1,1-Dimethylethyl)sulfinyl]-N-ethyl-6-fluorobenzamide], the inhibition at 0.1 ppm is 82%, the inhibition at 1 ppm is 100% and the inhibition at 10 ppm came to 100%.

For `C=C(C)CNC(=O)c1c(Cl)cccc1[Si](C)(C)C` [Example 147, 2-Chloro-N-(2-methyl-2-propenyl)-6-(trimethylsilyl)benzamide], the inhibition at 0.1 ppm was < 0%, the inhibition at 1 ppm was < 0% and the inhibition at 10 ppm came to 58%.

For `CCNC(=O)c1c(Br)csc1[Si](C)(C)C` [Example 267, 4-Bromo-N-ethyl-2-(trimethylsilyl)-3-thiophenecarboxamide], the inhibition at 0.1 ppm was 18%, the inhibition at 1 ppm worked out at 64% and the inhibition at 10 ppm amounted to 61%.

`C#CCNC(=O)c1c(I)cccc1[Si](C)(C)C` [Example 208, 2-Iodo-N-2-propynyl-6-(trimethylsilyl)benzamide]: the inhibition at 0.1 ppm is < 0%, the inhibition at 1 ppm was 83% and the inhibition at 10 ppm is 97%.

Regarding `Cc1ccc(F)c([Si](C)(C)C)c1C(=O)N(C)C(C)(C)C` [Example 11, N-(1,1-Dimethylethyl)-3-fluoro-N,6-dimethyl-2-(trimethylsilyl)benzamide], the inhibition at 0.1 ppm is < 0%, the inhibition at 1 ppm is < 0% and the inhibition at 10 ppm worked out at 24%.

Consider `CCNC(=O)c1c([Si](C)(C)C)ccc(C#C[Si](C)(C)C)c1Cl` [Example 276, 2-Chloro-N-ethyl-6-(trimethylsilyl)-3-[(trimethylsilyl)ethynyl]benzamide], for which the inhibition at 0.1 ppm is < 0%, the inhibition at 1 ppm came to 63% and the inhibition at 10 ppm stood at 84%.
